According to patent publication US20070054838A1, “METHOD FOR IMPROVING DIAGNOSTIC QUALITY IN ECHOCARDIOGRAPHY” (priority 2005, published 2007):

What was measured:
[1] = pharmacokinetic studies of oral cilobradine in cats; type: in vivo
Protocol: (§1) For example, the following dosages relevant for practicing the present invention with the bradycardic agent cilobradine in cats and dogs, have been determined in appropriate pharmacokinetic studies performed by the inventors. The single oral dose of cilobradine for potent heart rate reduction in cats is 0.2-0.4 mg/kg. The single oral dose of cilobradine for potent heart rate reduction in dogs is 0.3 mg/kg. […] Peak plasma levels are reached 0.5 hours after oral administration in cats and after 1 to 2 hours in dogs.

[2] = pharmacokinetic studies of oral cilobradine in dogs; type: in vivo
Protocol: as §1

[3] = test system: cats suffering from asymptomatic HCM; experiment: clinical field study, echocardiography in cats suffering from asymptomatic HCM; type: in vivo; conditions: during treatment, days 3 and 6; orally once daily for 5 days; four cats; at baseline not possible in 2 of 4 cats
Protocol: The use according to the invention of an If channel blocker, namely cilobradine, was investigated in a clinical field study with cats suffering from asymptomatic HCM.
Four cats diagnosed as suffering from asymptomatic HCM by means of motion mode […] (left ventricular wall thickness>6 mm), received cilobradine orally once daily for 5 consecutive days. Detailed clinical examinations were conducted at baseline and on days 1, 2, 3, 6 and 9. ECG measurements were performed at baseline and on days 3 and 6 of the study.
The composition used in the experiment was as follows. • Oral solution containing 2 mg/ml cilobradine • Active ingredient added to 0.9% NaCl solution
The results of the experiment, measuring the left ventricular E to A ratios obtained at baseline and under cilobradine treatment, are shown in enclosed FIG. 1.

[4] = test system: hyperpolarisation activated, cAMP-modulated cation current channels (HCN); conditions: cardiac conductive tissues; cited from earlier work

Row | Structure (SMILES) | Time at which peak plasma levels are reached ([1]; after oral administration) [h] | Absolute bioavailability of oral formulations ([1]; oral) [%] | Single oral dose for potent heart rate reduction ([1]; oral) [mg/kg] | Absolute bioavailability of oral formulations [2] | Single oral dose for potent heart rate reduction [2] [mg/kg] | Calculation of left ventricular E/A ratios [3] | Block of HCN channels (If current) [4]
1 | COc1ccc(CCN2CCCC(CN3CCc4cc(OC)c(OC)cc4CC3=O)C2)cc1OC (centres unmarked) [cilobradine] | 0.5 | 22.6 | 0.2 to 0.4 | 26-43% | 0.3 | possible in all cats | selectively block
2 | COc1ccc(CCN(C)CCCN2CCc3cc(OC)c(OC)cc3CC2=O)cc1OC [zatebradine] |  |  |  |  |  |  | selectively block
